Structures can show the parent of a compound that is named as a salt. Where two headings read alike, the source gives them in different places.
Legend:
Human DYRK1B = molecular target: T1, Human DYRK1B (Homo sapiens, UniProt Q9Y463); test: DYRK1B Kinase TR-FRET (IMAP-Tb) Assay; assay type: biochemical; conditions: TR-FRET (IMAP-Tb); ATP 70 μM; 37° C. 60 minutes; read-out: Enzyme IC50 (μM) DYRK1B
T1 construct: purchased Invitrogen PR8350B (former PV4649)

[1] = tested on: SW620 human colon cancer cells; test: SW620 Cell Viability Assay; assay type: cell-based; conditions: CellTiter-Glo, 4 days incubation, read-out: Cellular EC50 (μM) SW620
Procedure, shortened: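 SW620 human colon cancer cells, some attached 24 h then serum-starved 48 h before dosing; compounds prepared in serum-supplemented medium. Cells incubated with compound 4 days at 37 °C, 5% CO2, and viability measured by CellTiter-Glo luminescence.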

Human DYRK1A = molecular target: T2, Human DYRK1A (Homo sapiens, UniProt Q13627); test: DYRK1A Kinase TR-FRET (IMAP-Tb) Assay; assay type: biochemical; conditions: TR-FRET (IMAP-Tb); ATP 70 μM; 37° C. 60 minutes; read-out: Enzyme IC50 (μM) DYRK1A
T2 construct: purchased Invitrogen PV3997
Procedure, shortened: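 Recombinant human DYRK1A phosphorylated fluorescent substrate peptide (1.0 μM) with ATP in 10 mM HEPES pH 7.0, 50 mM NaCl, 5 mM MgCl2, 1 mM DTT, 1 mM NaVO4, 0.02% BSA for 60 min at 37 °C. Phosphopeptide detected by IMAP terbium TR-FRET; IC50 reported.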

T1 sequence (Q9Y463 whole entry): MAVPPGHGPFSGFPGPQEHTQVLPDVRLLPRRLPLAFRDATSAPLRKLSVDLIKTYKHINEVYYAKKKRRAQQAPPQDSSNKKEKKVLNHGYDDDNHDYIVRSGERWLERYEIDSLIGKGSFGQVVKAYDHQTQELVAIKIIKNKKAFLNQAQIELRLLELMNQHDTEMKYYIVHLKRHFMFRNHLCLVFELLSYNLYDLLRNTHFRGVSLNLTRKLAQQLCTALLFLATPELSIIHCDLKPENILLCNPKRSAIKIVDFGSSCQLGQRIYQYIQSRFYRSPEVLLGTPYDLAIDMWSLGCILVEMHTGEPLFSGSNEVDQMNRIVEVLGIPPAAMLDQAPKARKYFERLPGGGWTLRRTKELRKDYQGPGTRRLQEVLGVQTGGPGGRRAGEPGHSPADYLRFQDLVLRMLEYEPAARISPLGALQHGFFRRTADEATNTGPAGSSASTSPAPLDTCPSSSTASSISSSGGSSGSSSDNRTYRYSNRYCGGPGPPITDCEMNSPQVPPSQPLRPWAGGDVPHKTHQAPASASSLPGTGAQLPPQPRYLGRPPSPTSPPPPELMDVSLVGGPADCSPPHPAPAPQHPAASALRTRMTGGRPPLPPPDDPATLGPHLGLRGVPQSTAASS

SMILES	IC50 (Human DYRK1B)	EC50 [1]	IC50 (Human DYRK1A)	EC50 ([1]; hydrochloride)	EC50 ([1]; Homo sapiens, SW-620, 96 h)
CN1CCN(CCNc2ncc3cc(C(=O)Nc4cc(C(=O)NCc5cccc(Cl)c5)ccc4Cl)c(=O)[nH]c3n2)CC1 [Example 99, 2-[2-(4-Methyl-piperazin-1-yl)-ethylamino]-7-oxo-7,8-dihydro-pyrido[2,3-d]pyrimidine-6-carboxylic acid [2-chloro-5-(3-chloro-benzylcarbamoyl)-phenyl]amide]	0.0347 µM	0.0276 µM	0.0202 µM		
CN1CCN(CCNc2ncc3cc(C(=O)Nc4cc(C(=O)NCc5cccc(Cl)c5)ccc4Cl)c(=O)[nH]c3n2)CC1 [Example 100, N-(2-chloro-5-(3-chlorobenzylcarbamoyl)phenyl)-2-(2-(4-methylpiperazin-1-yl)ethylamino)-7-oxo-7,8-dihydropyrido[2,3-d]pyrimidine-6-carboxamide hydrochloride]	0.142 µM		0.0381 µM	0.068 µM	
CN1CCN(CCCNc2ncc3cc(C(=O)Nc4cc(C(=O)NCc5cccc(Cl)c5)ccc4Cl)c(=O)[nH]c3n2)CC1 [Example 101, 2-[3-(4-Methyl-piperazin-1-yl)-propylamino]-7-oxo-7,8-dihydro-pyrido[2,3-d]pyrimidine-6-carboxylic acid [2-chloro-5-(3-chloro-benzylcarbamoyl)-phenyl]amide]	0.0221 µM		0.0263 µM		0.0663 µM
CN1CCN(CCCNc2ncc3cc(C(=O)Nc4cc(C(=O)NCc5cccc(Cl)c5)ccc4Cl)c(=O)[nH]c3n2)CC1 [Example 102, 2-[3-(4-Methyl-piperazin-1-yl)-propylamino]-7-oxo-7,8-dihydro-pyrido[2,3-d]pyrimidine-6-carboxylic acid [2-chloro-5-(3-chloro-benzylcarbamoyl)-phenyl]-amide hydrochloride]	0.047 µM		0.0356 µM	0.0531 µM	
O=C(NCc1cccc(Cl)c1)c1ccc(Cl)c(NC(=O)c2cc3cnc(NCCO)nc3[nH]c2=O)c1 [Example 103, N-(2-chloro-5-(3-chlorobenzylcarbamoyl)phenyl)-2-(2-hydroxyethylamino)-7-oxo-7,8-dihydropyrido[2,3-d]pyrimidine-6-carboxamide]	0.0291 µM		0.00974 µM		> 10 µM
CN1CCC(CCNc2ncc3cc(C(=O)Nc4cc(C(=O)NCc5cccc(Cl)c5)ccc4Cl)c(=O)[nH]c3n2)CC1 [Example 104, N-(2-chloro-5-(3-chlorobenzylcarbamoyl)phenyl)-2-(2-(1-methylpiperidin-4-yl)ethylamino)-7-oxo-7,8-dihydropyrido[2,3-d]pyrimidine-6-carboxamide]	0.0613 µM		0.0226 µM		0.0787 µM
CSc1ncc2cc(C(=O)Nc3cc(C(=O)NC(CN)c4ccccc4)ccc3Cl)c(=O)[nH]c2n1 (stereo not drawn) [Example 105, N-(5-(2-amino-1-phenylethylcarbamoyl)-2-chlorophenyl)-2-(methylthio)-7-oxo-7,8-dihydropyrido[2,3-d]pyrimidine-6-carboxamide]	0.0099 µM		0.0096 µM		0.296 µM
CSc1ncc2cc(C(=O)Nc3cc(C(=O)NC(CCN)c4ccccc4)ccc3Cl)c(=O)[nH]c2n1 (stereo not drawn) [Example 107, 2-Methylsulfanyl-7-oxo-7,8-dihydro-pyrido[2,3-d]pyrimidine-6-carboxylic acid [5-(3-amino-1-phenyl-propylcarbamoyl)-2-chloro-phenyl]-amide; hydrochloride]	0.0105 µM		0.00467 µM		0.236 µM
CC(=O)N1CCN(c2ncc3cc(C(=O)Nc4cc(C(=O)NCc5cccc(Cl)c5)ccc4Cl)c(=O)[nH]c3n2)CC1 [Example 108, 2-(4-Acetylpiperazin-1-yl)-N-(2-chloro-5-(3-chlorobenzylcarbamoyl)phenyl)-7-oxo-7,8-dihydropyrido[2,3-d]pyrimidine-6-carboxamide]	0.056 µM		0.114 µM		0.528 µM
